Reference: the supplement of paper PMC10011410
± gives the standard deviation of the averaged measurements.

What was measured:
U-2 OS [1] = test: total intracellular glutathione (GSH + GSSG) relative to DMSO (% of control); higher = more glutathione; settings: 24 h
Method: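 Total intracellular glutathione (GSH + GSSG) in U-2 OS cells by GSH/GSSG-Glo after 24 h compound treatment at 5, 10 and 20 uM (some at 40 and 80 uM), as percent of DMSO control. Five technical replicate plates, averaged.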

U-2 OS [2] = test: relative cell count vs DMSO (cell painting) (fraction of DMSO control); higher = more cells remaining (less cytotoxic); settings: 24 h
Method in brief: (§1)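 Cell painting used U-2 OS cells at about 1,500 per well in 384-well plates, treated by pin tool for 24 h at 37 °C, usually at six 2-fold concentrations from 20 μM to 625 nM. Cells were stained with MitoTracker, concanavalin A, phalloidin, wheat germ agglutinin, Hoechst and SYTO 14 and imaged on an Opera Phenix. Features were extracted with CellProfiler and normalized to DMSO cells on the same plate. The activity score is the Mahalanobis distance from DMSO wells; cell count is relative to DMSO wells. Values are means of four replicate plates.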

U-2 OS [3] = test: cell painting activity score (Mahalanobis distance from DMSO wells); higher = stronger morphological phenotype; settings: 24 h
Method in brief: as §1

U-2 OS [4] = test: cell viability (CellTiter-Glo) relative to DMSO (% of control); higher = more viable; settings: 24 h
Method: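 Cell viability of U-2 OS cells by CellTiter-Glo after 24 h compound treatment at 5, 10 and 20 uM (some at 40 and 80 uM), measured in parallel with the glutathione assay, as percent of DMSO control. Five technical replicate plates, averaged.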

U-2 OS [5] = test: AUC of culture confluence over time (live-cell imaging) (AUC (confluence % x time)); higher = more confluent culture (less growth inhibition)
Method in brief: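 Confluence of U-2 OS cells in F-12K medium with 10% FBS was tracked by live-cell imaging. Cells were seeded at 750 per well in 384-well plates and treated 24 h later by pin tool, with most compounds at 20, 10 and 5 μM and 0.2% DMSO. Cells were kept at 37 °C and imaged every 4 h for up to 60 h on an Incucyte S3 with a 10x objective. The value is the area under the confluence-versus-time curve.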

U-2 OS [6] = test: intracellular GSH:GSSG ratio (calculated); higher = more reduced glutathione pool; settings: 24 h
Method: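 Intracellular glutathione in U-2 OS cells after 24 h compound treatment at 5, 10 and 20 uM (some at 40 and 80 uM). Total glutathione and GSSG were measured with the GSH/GSSG-Glo kit, and the GSH:GSSG ratio was calculated. Mean of five technical replicate plates.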

Compound | total intracellular glutathione (U-2 OS [1]; 5 µM) | total intracellular glutathione (U-2 OS [1]; 10 µM) | total intracellular glutathione (U-2 OS [1]; 20 µM) | relative cell count (U-2 OS [2]; 0.625 µM) | relative cell count (U-2 OS [2]; 1.25 µM) | relative cell count (U-2 OS [2]; 2.5 µM) | relative cell count (U-2 OS [2]; 5 µM) | relative cell count (U-2 OS [2]; 10 µM) | relative cell count (U-2 OS [2]; 20 µM) | cell painting activity score (U-2 OS [3]; 0.625 µM) | cell painting activity score (U-2 OS [3]; 1.25 µM) | cell painting activity score (U-2 OS [3]; 2.5 µM) | cell painting activity score (U-2 OS [3]; 5 µM) | cell painting activity score (U-2 OS [3]; 10 µM) | cell painting activity score (U-2 OS [3]; 20 µM) | cell viability (U-2 OS [4]; 5 µM) | cell viability (U-2 OS [4]; 10 µM) | cell viability (U-2 OS [4]; 20 µM) | AUC of culture confluence over time (U-2 OS [5]; 5 µM) | AUC of culture confluence over time (U-2 OS [5]; 10 µM) | AUC of culture confluence over time (U-2 OS [5]; 20 µM) | intracellular GSH:GSSG ratio (U-2 OS [6]; 5 µM) | intracellular GSH:GSSG ratio (U-2 OS [6]; 10 µM) | intracellular GSH:GSSG ratio (U-2 OS [6]; 20 µM)
C=CC(=O)Nc1cc(Nc2nccc(-c3cn(C)c4ccccc34)n2)c(OC)cc1N(C)CCN(C)C | 86.9 ± 3.4 | 77.4 ± 3.5 | 50.4 ± 3.9 | 0.982 | 0.951 | 0.964 | 0.897 | 0.773 | 0.363 | 10.5 | 8.95 | 9.22 | 9.78 | 13.8 | 17.8 | 75.6 ± 3.2 | 55 ± 4 | 35 ± 2.5 | 39 | 28.4 | 7 | 22.9 | 12.3 | 7.29
c1ccc(Nc2nc(-c3ccccc3)ns2)cc1 | 104 ± 6.9 | 96.4 ± 2.9 | 98.2 ± 2.9 | 0.915 | 0.89 | 0.908 | 0.925 | 0.958 | 0.841 | 4.12 | 4.49 | 4.32 | 5.01 | 9.5 | 11.4 | 98.7 ± 3 | 95.3 ± 1.7 | 97.7 ± 4 | 49.5 | 46.8 | 49.1 | 23.1 | 14.2 | 15.3
CCCCCC[C@H]1C(=O)O[C@H](C)[C@H](NC(=O)c2cccc(NC=O)c2O)C(=O)O[C@@H](C)[C@@H]1OC(=O)CC(C)C | 65.6 ± 6.7 | 69.4 ± 4 | 66.1 ± 3 | 0.8 | 0.81 | 0.802 | 0.8 | 0.783 | 0.831 | 12.7 | 13.2 | 12.9 | 12.9 | 12.8 | 12.2 | 54.1 ± 5.4 | 59.2 ± 1.6 | 56.2 ± 3.1 | 38 | 38 | 38.3 | 21.6 | 23.5 | 22.4
O=C1CCC(=O)N1c1ccc(O)cc1 | 105 ± 13 | 87.4 ± 4.5 | 102 ± 5.2 | 1.02 | 0.976 | 0.966 | 0.904 | 1.03 | 1.04 | 4.12 | 3.43 | 3.81 | 3.52 | 4.26 | 2.95 | 107 ± 6.3 | 106 ± 7.5 | 105 ± 5.4 | 48.1 | 42.4 | 43.3 | 43 | 32.2 | 56.3
